Several values for one entry are separate records, joined by “and”; a condition that tells them apart may be missing. Identical values can stand only once. Like-named read-outs stand apart in the source and are kept apart here.
What was measured:
[1] = test system: head and neck, anal, and ovarian cancer; conditions: cited from earlier work
PANC1 = PANC1 cell line; external data from prior publications; cited from earlier work
SCLC = conditions: cited from earlier work
[2] = test system: metastatic high-grade serous ovarian cancer; assay: Observed response in phase 2 clinical trials, patients with FFPE pre-treatment biopsies (Example 5); format: in vivo, human; design: key to RECIST response category: SD: stable disease;; PR: partial response;; PD: progressive disease;; conditions: for RECIST Responder: RECIST response = PR or CR
Description: Biopsy samples from several independent clinical phase 2 studies were merged for this analysis based on availability. Study JTJN (NCT03414047) was a large multicenter, multi-country, non-randomized, parallel cohort, Phase 2 study of prexasertib in subjects with advanced stage, high grade serous ovarian, primary peritoneal, or fallopian tube cancer. Several single-center phase 2 studies sponsored by NCI of prexasertib in BRCA ½ wild-type or BRCA ½ mutant recurrent high-grade serous ovarian cancer (NCT02203513) provided additional FFPE samples; see Lee, Lancet Oncol. 19(2): 207-215 (2018). To evaluate whether a provided Response-Predictive Signature can successfully predict patient responders, sections of pre-treatment tumor biopsies were stained blinded to treatment outcome using antibodies against three biomarkers (biomarker 1 (BM1) Ser296 phosphorylated Chk1, biomarker 2 (BM2) Ser473 phosphorylated Kap1, and biomarker 3 (BM3) total cyclin E1) and imaged using immunofluorescence microscopy. The tumor samples were additionally stained using an antibody against cytokeratin in order to identify and distinguish tumor cells of interest from the surrounding stroma and stained with DAPI to identify cell nuclei.
The Response-Predictive Signature was evaluated by comparing predicted response to prexasertib of each patient to observed response in the clinical trials (Table 8, FIG. 15). Observed clinical trial responses were provided separately to the third party biostatistician. They were classified according to RECIST criteria as complete response (CR), partial response (PR), stable disease (SD), or progressive disease (PD). Additionally, the observed treatment outcome was quantified based on the maximum fractional change in tumor volume after treatment (Table 8, FIG. 15). […] Clinical RECIST responder rate (PR or CR) among those predicted by the Response-Predictive Signature to be non-responders was 5%. Clinical RECIST responder rate (PR or CR) among those predicted by the Response-Predictive Signature to be responders was 58%. This 58% represented a substantial responder-enrichment over the overall unenriched response rate of 25%.

[3] = test system: metastatic high-grade serous ovarian cancer; assay: Observed treatment outcome in phase II clinical trials, patients with frozen pre-treatment biopsies (Example 4); format: in vivo, human; design: key to Treatment Result (RECIST): partial response (PR); stable disease (SD); progressive disease (PD)
Description: The study was conducted in a blinded, prospectively designed manner on pretreatment tumor biopsies collected from ovarian cancer patients treated in phase 2 trials at the NCI in the past with prexasertib, including a previous single center phase II clinical trial for prexasertib in metastatic high-grade serous ovarian cancer; see Lee et al., Lancet Oncol. 19(2): 207-215 (2018). These past studies were unable to identify predictive biomarkers. To evaluate whether a provided Response-Predictive Signature can successfully predict patient responders, frozen, de-identified sections of pre-treatment tumor biopsies from the phase II clinical trials were obtained. Moreover, they were received without any knowledge about clinical annotation, including response to prexasertib. Each patient tumor biopsy sample was stained using antibodies against three biomarkers and imaged using immunofluorescence microscopy. Biomarker 1 (BM1) was Ser296 phosphorylated Chk1. Biomarker 2 (BM2) was Ser473 phosphorylated Kap1. Biomarker 3 (BM3) was total cyclin E1. Unless otherwise indicated, these were the biomarkers used throughout the Examples.
To evaluate whether the provided Response-Predictive Signature can predict response to prexasertib treatment, the predicted response for each patient was compared to the observed treatment outcomes in the previously conducted phase II clinical trials for the patient (Table 6 and FIGS. 5, 12, and 13). This was done in a blinded manner, with quantitative biomarker scores and clinical annotation provided to a third-party biostatistician and the principal investigator, respectively. Observed treatment outcomes were classified according to RECIST criteria as partial response (PR), stable disease (SD), or progressive disease (PD). […] Additionally, the observed treatment outcome was quantified based on the fractional change in tumor volume after treatment and progression free survival (PFS) (Table 6 and FIGS. 5, 12, and 13).

Ovarian, metastases = conditions: cited from earlier work
Anal, SCC = conditions: cited from earlier work
[4] = individual patients predicted non-responder (NR)
[5] = individual patients predicted responder (R)

COc1cccc(OCCCN)c1-c1cc(Nc2cnc(C#N)cn2)n[nH]1 [prexasertib, 5-(5-(2-(3-aminopropoxy)-6-methoxyphenyl)-1H-pyrazol-3-ylamino)pyrazine-2-carbonitrile]
Response rates in clinical trials ([1]; across cancers, including head and neck, anal, and ovarian cancer, single agent): 5-20% | Side effects ([1]; patients, reversible, common, hematological, mechanism-based myelosuppression): neutropenia, thrombocytopenia, and anemia | EC50 (PANC1): > 10 µM | ORR in trials (SCLC; platinum resistant): 0% (platinum | ORR in trials (SCLC; platinum sensitive): 5% (platinum | overall unenriched response rate ([2]; all patients of the FFPE cohort): 25% | Clinical RECIST responder rate (PR or CR) ([2]; among those predicted by the Response-Predictive Signature to be non-responders): 5% | Clinical RECIST responder rate (PR or CR) ([2]; among those predicted by the Response-Predictive Signature to be responders): 58% | Best Tumor Shrinkage (fraction from baseline) [2, 4]: 0.048 and 0.159 and −0.037 and −0.118 (2×) and 0.353 and −0.024 and −0.077 and 0 (2×) and 0.342 and 0.105 and −0.192 and 0.146 and −0.012 and 0.015 and 0.24 and 0.1 and 0.04 and 0.01 | RECIST response category [2, 4]: SD (16×) and PD (3×) and PR | RECIST Responder [2, 4]: FALSE (19×) and TRUE | Best Tumor Shrinkage (fraction from baseline) [2, 5]: 0.146 and 0 and 0.441 and 0.52 and 0.584 and −0.287 and 0.038 and 0.492 and 0.59 and 0.35 and 0.14 and 0.444 | RECIST response category [2, 5]: SD (4×) and PR (7×) and PD | RECIST Responder [2, 5]: FALSE (5×) and TRUE (7×) | FracShrink (fractional change in tumor volume) [3, 4]: 0.109 and 0 and −0.26 and −0.1 and 1.04 and 0.02 and 0.085 and −0.04 | PFS [3, 4]: 70 days and 56 days and 223 days and 104 days and 63 days and 33 days and 62 days and 112 days | Treatment Result (RECIST) [3, 4]: SD (4×) and PD (4×) | FracShrink (fractional change in tumor volume) [3, 5]: −0.36 and −0.345 and −0.46 and −0.33 and −0.27 and −0.01 (2×) and −0.23 and −0.76 and −0.14 and −0.02 and −0.11 and −0.5 and −0.495 and −0.194 | PFS [3, 5]: 101 days and 402 days and 286 days and 211 days and 392 days and 62 days and 510 days and 602 days and 238 days and 258 days and 140 days and 293 days and 230 days and 112 days and 123 days | Treatment Result (RECIST) [3, 5]: PR (7×) and SD (7×) and PD | ORR in trials (Ovarian, metastases; Ovarian, metastases, trial 1, NCI phase II trial): 32% (trial 1*) | response rate (Ovarian, metastases; single center, phase 2 study in ovarian cancer at NCI, single agent): 29% | ORR in trials (Anal, SCC): 15%
